Columns and labels:
Format in all cases: cell-based, rat
[1] = system: primary hippocampal neurons; assay: Glutamate neurotoxicity, cell death (propidium iodide) after VLC-PUFA pretreatment; settings: for IC50: Rattus norvegicus, Hippocampal neuron, 48 h pretreatment, L-glutamic acid 50 μM 60 min, assayed 24 h later, read-out: half-maximal inhibitory concentration (IC50), inhibition of cell death due to glutamate exposure; for concentrations at which cell death due to glutamate exposure was significantly inhibited: tested 0.1-30 μM, ANOVA/Tukey vs injured vehicle control, p<0.05
Protocol: (§1) Primary hippocampal neurons were harvested from embryonic day 17-18 rat fetuses using a modified version of previously described protocols (Banker and Cowan, 1977; Brewer et al., 1993) that preferentially select for neuronal growth over glial growth (Brewer, 1997). Pregnant dams were anesthetized via isoflurane on gestational day 18, and the rat fetuses were harvested by Cesarean section. Brains were removed and placed in ice-cold (4° C.) Hibernate EB (Brain Bits, Inc., Springfield, Il, USA) until all of the hippocampi were dissected. During the dissection, brain tissue was kept on an ice-cold block in Hibernate E solution. Dissected hippocampal tissue was washed once in room-temperature Hibernate E (without calcium, Brain Bits, Inc.) to remove divalent cations, and then incubated at 37° C. in a solution consisting of 0.17% trypsin in Hybernate E (without calcium) for 10 minutes. The tissue was subsequently washed once with ice-cold Hybernate E (without calcium) containing 15% fetal bovine serum (Atlas Biologicals, Fort Collins, Colo., USA) and then dissociated by trituration in the same media. Dispersed cell suspensions were centrifuged for 2 minutes at 200 g at 4° C., and resuspended in ice-cold Neurobasal medium (Invitrogen, Carlsbad, Calif., USA) supplemented with 1×B27 (Invitrogen), 100 μg/ml penicillin-streptomycin (Invitrogen), 0.5 mM L-glutamine (Invitrogen) and 0.025 mM L-glutamate (Sigma, St. Louis, Mo., USA). Viable cell number and concentration were determined by trypan blue exclusion and counted using an automated cell counter (Countess, Invitrogen). Cell suspensions were diluted in warm Neurobasal/B27 media and plated at a density of 30,000 cells per well in 96-well plates (Falcon Optilux plates, BD Biosciences, Bedford, Mass., USA) coated with laminin (Sigma) and poly-D-lysine (Sigma). Cultures were maintained in a temperature- (37° C.), humidity- (−100%), and gas- (5% CO2, 9% O2) controlled incubator. Half of the media was removed and replaced with fresh media every other day. All cultures were maintained for 3 days in vitro (DIV) in glutamate-containing media and then maintained an additional 7 DIV (glutamate neurotoxicity experiments) or 8 DIV (hypoxia) in Neurobasal/B27 media without glutamate.
(§2) Very long-chain polyunsaturated fatty acids (VLCPUFAs; 34:6n3, 34:5n3, 28:6n3, 28:5n3, and 28:4n6) were obtained as the free fatty acid and were stored at −20° C. until use. Each VLC-PUFA was dissolved in methanol to an initial concentration of 100 mM and then diluted serially in methanol to obtain 1000× stocks for each concentration tested. These were diluted further in media to obtain the appropriate concentration within the culture wells (final concentrations of 30 μM, 10 μM, 3 μM, 1 μM, 0.3 μM, and 0.1 μM). Controls received methanol similarly diluted in media (final concentration 0.1%). The VLC-PUFAs were added to the cultures 48 hours prior to glutamate insult or hypoxia exposure (described below), and a 50% media change occurred immediately prior to hypoxia exposure or immediately following glutamate exposure.
Cultures were treated with L-glutamic acid (50 μM, pH 7.0) for 60 minutes followed by a complete media change containing the appropriate concentrations of VLC-PUFAs. Cells were assayed for viability and mitochondrial health 24 hours after the glutamate treatment. […]

[2] = system: primary hippocampal neurons; assay: Mitochondrial health (TMRE) after glutamate-induced neurotoxicity; settings: for EC50: Rattus norvegicus, Hippocampal neuron, 48 h pretreatment, L-glutamic acid 50 μM 60 min, assayed 24 h later, read-out: half-maximal effective concentration (EC50), increase of mitochondrial health after glutamate; for concentrations at which mitochondrial health after glutamate was significantly increased: tested 0.1-30 μM, ANOVA/Tukey vs injured vehicle control
Protocol: as §1, §2
Cultures were treated with L-glutamic acid (50 μM, pH 7.0) for 60 minutes followed by a complete media change containing the appropriate concentrations of VLC-PUFAs. Cells were assayed for viability and mitochondrial health 24 hours after the glutamate treatment.
Following glutamate exposure or hypoxia, cultures were aspirated with a 96-well plate washer (BioTek, Winooski, Vt., USA) and incubated for 15 minutes at 37° C. with phenol-free Neurobasal media (Invitrogen) containing one of two dye mixtures: 1) Hoechst dye (1:2000 of a 10 μg/ml solution, Invitrogen) and propidium iodide (PI; 1:500 of a 1 μg/ml solution; Invitrogen), or 2) Hoechst dye and tetramethylrhodamine ethyl ester (TMRE; 100 nM; Invitrogen). These dyes identify total cells (Hoechst), dying or dead cells (PI), and functional mitochondria (TMRE). […]

[3] = system: primary hippocampal neurons; assay: Hypoxia, cell death (propidium iodide) after VLC-PUFA pretreatment; settings: 48 h hypoxia, O2 ≦0.3%, tested 0.1-30 μM
Protocol: as §1, with “All cultures were maintained for 3 days in vitro (DIV) in glutamate-containing media and then maintained an additional 7 DIV (glutamate neurotoxicity experiments) or 8 DIV (hypoxia) in Neurobasal/B27 media without glutamate.” left out

[4] = system: primary hippocampal neurons; assay: Mitochondrial health (TMRE) after hypoxia; settings: 48 h hypoxia, O2 ≦0.3%; tested 0.1-30 μM
Protocol: Primary hippocampal neurons were harvested from embryonic day 17-18 rat fetuses using a modified version of previously described protocols (Banker and Cowan, 1977; Brewer et al., 1993) that preferentially select for neuronal growth over glial growth (Brewer, 1997). Pregnant dams were anesthetized via isoflurane on gestational day 18, and the rat fetuses were harvested by Cesarean section. Brains were removed and placed in ice-cold (4° C.) Hibernate EB (Brain Bits, Inc., Springfield, Il, USA) until all of the hippocampi were dissected. During the dissection, brain tissue was kept on an ice-cold block in Hibernate E solution. Dissected hippocampal tissue was washed once in room-temperature Hibernate E (without calcium, Brain Bits, Inc.) to remove divalent cations, and then incubated at 37° C. in a solution consisting of 0.17% trypsin in Hybernate E (without calcium) for 10 minutes. The tissue was subsequently washed once with ice-cold Hybernate E (without calcium) containing 15% fetal bovine serum (Atlas Biologicals, Fort Collins, Colo., USA) and then dissociated by trituration in the same media. […] Viable cell number and concentration were determined by trypan blue exclusion and counted using an automated cell counter (Countess, Invitrogen). […]

| SMILES | IC50 [1] [nM] | concentrations at which cell death due to glutamate exposure was significantly inhibited [1] [µM] | EC50 [2] [nM] | concentrations at which mitochondrial health after glutamate was significantly increased [2] [µM] | concentrations at which cell death due to hypoxia was significantly inhibited ([3]; 48 h pretreatment) [µM] | effect on mitochondrial health after hypoxia (in words) [4] | effect on hypoxia-induced cell death (in words) [3] |
| --- | --- | --- | --- | --- | --- | --- | --- |
| CC/C=C\C/C=C\C/C=C\C/C=C\C/C=C\C/C=C\CCCCCCCCCCCCCCC(=O)O [34:6n3] | 1070 | ≥ 3.0 | 250 | ≥ 0.3 | 1.0 | did not significantly alter mitochondrial health at the concentrations tested | – |
| CC/C=C\C/C=C\C/C=C\C/C=C\C/C=C\CCCCCCCCCCCCCCCCCC(=O)O [34:5n3] | 690 | – | 680 | 3.0 | – | – | exhibited a main effect of treatment, but only one concentration (0.3 μM) approached a significant difference when compared to controls |
| CC/C=C\C/C=C\C/C=C\C/C=C\C/C=C\C/C=C\CCCCCCCCC(=O)O [28:6n3] | 210 | ≥ 0.3 | 170 | ≥ 3.0 | – | – | did not inhibit hypoxia-induced cell death at any concentration tested |
